# System: subjects with moderate-to-severe plaque psoriasis
# Test: Safety, adverse events, Example 2 through Week 56
# Format: in vivo, human
# Parameters: Participants experiencing 1 or more AEs: unit not given here
# Details: for Subjects with 1 or more Adverse events / Subjects with 1 or more Adverse events: Alanine aminotransferase increased / Subjects with 1 or more Adverse events: Arthralgia / Subjects with 1 or more Adverse events: Aspartate aminotransferase increased / Subjects with 1 or more Adverse events: Bronchitis / Subjects with 1 or more Adverse events: COVID-19 / Subjects with 1 or more Adverse events: Cough / Subjects with 1 or more Adverse events: Diarrhea / Subjects with 1 or more Adverse events: Headache / Subjects with 1 or more Adverse events: Influenza / Subjects with 1 or more Adverse events: Nasopharyngitis / Subjects with 1 or more Adverse events: Upper respiratory tract infection / Subjects with 1 or more Adverse events: Urinary tract infection / Subjects with 1 or more Serious adverse events / Subjects with 1 or more Serious adverse events: COVID-19 / Subjects with 1 or more Serious adverse events: Cerebrovascular accident / Subjects with 1 or more Serious adverse events: Coronary artery disease / Subjects with 1 or more Serious adverse events: Diverticulitis / Subjects with 1 or more Serious adverse events: Foot deformity / Subjects with 1 or more Serious adverse events: Infected cyst / Subjects with 1 or more Serious adverse events: Intervertebral disc protrusion / Subjects with 1 or more Serious adverse events: Ligament injury / Subjects with 1 or more Serious adverse events: Non-cardiac chest pain / Subjects with 1 or more Serious adverse events: Suicide attempt / Subjects with 1 or more Serious adverse events: Tonsillar hypertrophy / Subjects with 1 or more Serious adverse events: Uterine leiomyoma / Subjects with 1 or more Serious adverse events: Ventricular dysfunction / Subjects with 1 or more treatment-emergent adverse events leading to discontinuation of study agent: number of subjects
# Excerpt: The LTE safety analysis was based on randomized participants in Example who entered the present long-term extension study and received at least one dose of study intervention (including a partial dose) during the study period.
# [1] = Placebo → 100 mg QD, through Week 56
# [2] = Week 16 through Week 56, dose group = column
# [3] = combined group, long-term extension
smiles,measurement,setting,value
"CC(=O)NCCCC[C@@H]1NC(=O)[C@H](Cc2c[nH]c3c(C)cccc23)NC(=O)[C@H]([C@@H](C)O)NC(=O)[C@H](CC(N)=O)NC(=O)[C@@H](NC(C)=O)C(C)(C)SSC(C)(C)[C@@H](C(=O)N[C@@H](Cc2ccc(OCCN)cc2)C(=O)N[C@@H](Cc2ccc3ccccc3c2)C(=O)NC2(C(=O)N[C@@H](CCC(=O)O)C(=O)N[C@@H](CC(N)=O)C(=O)N[C@@H](Cc3cccnc3)C(=O)N(C)CC(N)=O)CCOCC2)NC1=O [IL-23 receptor antagonist peptide, Ac-[Pen]*-N-T-[W(7-Me)]-[Lys(Ac)]-[Pen]*-Phe[4-(2-aminoethoxy)]-[2-Nal]-[THP]-E-N-[3-Pal]-Sarc-NH2 (*[Pen]-[Pen]* formdisulfidebond)]",Pyrexia: number of subjects,[1],0
same,Rash pruritic: number of subjects,[1],0
same,Renal and urinary disorders: % of subjects,[1],(5.7%)
same,Renal and urinary disorders: number of subjects,[1],2
same,Renal mass: number of subjects,[1],0
same,"Respiratory, thoracic and mediastinal disorders: % of subjects",[1],(2.9%)
same,"Respiratory, thoracic and mediastinal disorders: number of subjects",[1],1
same,Retinal vein occlusion: % of subjects,[1],(2.9%)
same,Retinal vein occlusion: number of subjects,[1],1
same,Rhinorrhoea: number of subjects,[1],0
same,Seasonal allergy: number of subjects,[1],0
same,Skin and subcutaneous tissue disorders: % of subjects,[1],(5.7%)
same,Skin and subcutaneous tissue disorders: number of subjects,[1],2
same,Skin laceration: number of subjects,[1],0
same,Skin papilloma: number of subjects,[1],0
same,Social circumstances: number of subjects,[1],0
same,Steatohepatitis: number of subjects,[1],0
same,Suicide attempt: number of subjects,[1],0
same,Sunburn: number of subjects,[1],0
same,Thrombocytopenia: number of subjects,[1],0
same,Thrombocytosis: number of subjects,[1],0
same,Tonsillar hypertrophy: number of subjects,[1],0
same,Tooth fracture: number of subjects,[1],0
same,Type 2 diabetes mellitus: number of subjects,[1],0
same,Urinary tract disorder: number of subjects,[1],0
same,Uterine leiomyoma: number of subjects,[1],0
same,Vascular disorders: % of subjects,[1],(2.9%)
same,Vascular disorders: number of subjects,[1],1
same,Ventricular dysfunction: number of subjects,[1],0
same,Vertigo: number of subjects,[1],0
same,Vitamin D deficiency: number of subjects,[1],0
same,Investigations (system organ class): % of subjects,[2],(10.5%)
same,Nasopharyngitis: % of subjects,[2],(25.7%)
same,Infections and infestations AEs,"all groups, long-term extension",41.9%
same,Tolerability,"all treatment groups, long-term extension",well-tolerated
same,COVID-19,[3],5.3%
same,Nasopharyngitis,[3],18.1%
same,Participants experiencing 1 or more AEs,[3],58.600
same,Upper respiratory tract infection,[3],9.7%
same,Number of participants who discontinued study intervention due to one or more AEs,long-term extension,4
same,Participants with one or more serious adverse events,long-term extension,4.0%
same,Subjects with 1 or more Adverse events,"through Week 56, 25 mg BID",32
same,Subjects with 1 or more Adverse events: Alanine aminotransferase increased,"through Week 56, 25 mg BID",1
same,Subjects with 1 or more Adverse events: Arthralgia,"through Week 56, 25 mg BID",0
same,Subjects with 1 or more Adverse events: Aspartate aminotransferase increased,"through Week 56, 25 mg BID",1
same,Subjects with 1 or more Adverse events: Bronchitis,"through Week 56, 25 mg BID",2
same,Subjects with 1 or more Adverse events: COVID-19,"through Week 56, 25 mg BID",9
same,Subjects with 1 or more Adverse events: Cough,"through Week 56, 25 mg BID",0
same,Subjects with 1 or more Adverse events: Diarrhea,"through Week 56, 25 mg BID",2
same,Subjects with 1 or more Adverse events: Headache,"through Week 56, 25 mg BID",3
same,Subjects with 1 or more Adverse events: Influenza,"through Week 56, 25 mg BID",3
same,Subjects with 1 or more Adverse events: Nasopharyngitis,"through Week 56, 25 mg BID",8
same,Subjects with 1 or more Adverse events: Upper respiratory tract infection,"through Week 56, 25 mg BID",3
same,Subjects with 1 or more Adverse events: Urinary tract infection,"through Week 56, 25 mg BID",1
same,Subjects with 1 or more Serious adverse events,"through Week 56, 25 mg BID",3
same,Subjects with 1 or more Serious adverse events: COVID-19,"through Week 56, 25 mg BID",0
same,Subjects with 1 or more Serious adverse events: Cerebrovascular accident,"through Week 56, 25 mg BID",0
same,Subjects with 1 or more Serious adverse events: Coronary artery disease,"through Week 56, 25 mg BID",0
same,Subjects with 1 or more Serious adverse events: Diverticulitis,"through Week 56, 25 mg BID",0
same,Subjects with 1 or more Serious adverse events: Foot deformity,"through Week 56, 25 mg BID",0
same,Subjects with 1 or more Serious adverse events: Infected cyst,"through Week 56, 25 mg BID",0
same,Subjects with 1 or more Serious adverse events: Intervertebral disc protrusion,"through Week 56, 25 mg BID",0
same,Subjects with 1 or more Serious adverse events: Ligament injury,"through Week 56, 25 mg BID",1
same,Subjects with 1 or more Serious adverse events: Non-cardiac chest pain,"through Week 56, 25 mg BID",0
same,Subjects with 1 or more Serious adverse events: Suicide attempt,"through Week 56, 25 mg BID",0
same,Subjects with 1 or more Serious adverse events: Tonsillar hypertrophy,"through Week 56, 25 mg BID",1
same,Subjects with 1 or more Serious adverse events: Uterine leiomyoma,"through Week 56, 25 mg BID",0
same,Subjects with 1 or more Serious adverse events: Ventricular dysfunction,"through Week 56, 25 mg BID",1
same,Subjects with 1 or more treatment-emergent adverse events leading to discontinuation of study agent,"through Week 56, 25 mg BID",2
same,Subjects with 1 or more Adverse events,"through Week 56, 25 mg QD",24
same,Subjects with 1 or more Adverse events: Alanine aminotransferase increased,"through Week 56, 25 mg QD",1
same,Subjects with 1 or more Adverse events: Arthralgia,"through Week 56, 25 mg QD",1
same,Subjects with 1 or more Adverse events: Aspartate aminotransferase increased,"through Week 56, 25 mg QD",1
same,Subjects with 1 or more Adverse events: Bronchitis,"through Week 56, 25 mg QD",2
same,Subjects with 1 or more Adverse events: COVID-19,"through Week 56, 25 mg QD",6
same,Subjects with 1 or more Adverse events: Cough,"through Week 56, 25 mg QD",1
same,Subjects with 1 or more Adverse events: Diarrhea,"through Week 56, 25 mg QD",2
same,Subjects with 1 or more Adverse events: Headache,"through Week 56, 25 mg QD",2
same,Subjects with 1 or more Adverse events: Influenza,"through Week 56, 25 mg QD",0
same,Subjects with 1 or more Adverse events: Nasopharyngitis,"through Week 56, 25 mg QD",3
same,Subjects with 1 or more Adverse events: Upper respiratory tract infection,"through Week 56, 25 mg QD",7
same,Subjects with 1 or more Adverse events: Urinary tract infection,"through Week 56, 25 mg QD",2
same,Subjects with 1 or more Serious adverse events,"through Week 56, 25 mg QD",0
same,Subjects with 1 or more Serious adverse events: COVID-19,"through Week 56, 25 mg QD",0
same,Subjects with 1 or more Serious adverse events: Cerebrovascular accident,"through Week 56, 25 mg QD",0
same,Subjects with 1 or more Serious adverse events: Coronary artery disease,"through Week 56, 25 mg QD",0
same,Subjects with 1 or more Serious adverse events: Diverticulitis,"through Week 56, 25 mg QD",0
same,Subjects with 1 or more Serious adverse events: Foot deformity,"through Week 56, 25 mg QD",0
same,Subjects with 1 or more Serious adverse events: Infected cyst,"through Week 56, 25 mg QD",0
same,Subjects with 1 or more Serious adverse events: Intervertebral disc protrusion,"through Week 56, 25 mg QD",0
same,Subjects with 1 or more Serious adverse events: Ligament injury,"through Week 56, 25 mg QD",0
same,Subjects with 1 or more Serious adverse events: Non-cardiac chest pain,"through Week 56, 25 mg QD",0
same,Subjects with 1 or more Serious adverse events: Suicide attempt,"through Week 56, 25 mg QD",0
same,Subjects with 1 or more Serious adverse events: Tonsillar hypertrophy,"through Week 56, 25 mg QD",0
same,Subjects with 1 or more Serious adverse events: Uterine leiomyoma,"through Week 56, 25 mg QD",0
same,Subjects with 1 or more Serious adverse events: Ventricular dysfunction,"through Week 56, 25 mg QD",0
same,Subjects with 1 or more treatment-emergent adverse events leading to discontinuation of study agent,"through Week 56, 25 mg QD",3
same,Subjects with 1 or more Adverse events,"through Week 56, 50 mg QD",32
same,Subjects with 1 or more Adverse events: Alanine aminotransferase increased,"through Week 56, 50 mg QD",1
same,Subjects with 1 or more Adverse events: Arthralgia,"through Week 56, 50 mg QD",1
same,Subjects with 1 or more Adverse events: Aspartate aminotransferase increased,"through Week 56, 50 mg QD",1
same,Subjects with 1 or more Adverse events: Bronchitis,"through Week 56, 50 mg QD",4
same,Subjects with 1 or more Adverse events: COVID-19,"through Week 56, 50 mg QD",6
same,Subjects with 1 or more Adverse events: Cough,"through Week 56, 50 mg QD",2
same,Subjects with 1 or more Adverse events: Diarrhea,"through Week 56, 50 mg QD",4
same,Subjects with 1 or more Adverse events: Headache,"through Week 56, 50 mg QD",1
same,Subjects with 1 or more Adverse events: Influenza,"through Week 56, 50 mg QD",1
same,Subjects with 1 or more Adverse events: Nasopharyngitis,"through Week 56, 50 mg QD",13
same,Subjects with 1 or more Adverse events: Upper respiratory tract infection,"through Week 56, 50 mg QD",3
same,Subjects with 1 or more Adverse events: Urinary tract infection,"through Week 56, 50 mg QD",1
same,Subjects with 1 or more Serious adverse events,"through Week 56, 50 mg QD",3
same,Subjects with 1 or more Serious adverse events: COVID-19,"through Week 56, 50 mg QD",0
same,Subjects with 1 or more Serious adverse events: Cerebrovascular accident,"through Week 56, 50 mg QD",0
same,Subjects with 1 or more Serious adverse events: Coronary artery disease,"through Week 56, 50 mg QD",1
same,Subjects with 1 or more Serious adverse events: Diverticulitis,"through Week 56, 50 mg QD",0
same,Subjects with 1 or more Serious adverse events: Foot deformity,"through Week 56, 50 mg QD",1
same,Subjects with 1 or more Serious adverse events: Infected cyst,"through Week 56, 50 mg QD",1
same,Subjects with 1 or more Serious adverse events: Intervertebral disc protrusion,"through Week 56, 50 mg QD",0
same,Subjects with 1 or more Serious adverse events: Ligament injury,"through Week 56, 50 mg QD",0
same,Subjects with 1 or more Serious adverse events: Non-cardiac chest pain,"through Week 56, 50 mg QD",1
same,Subjects with 1 or more Serious adverse events: Suicide attempt,"through Week 56, 50 mg QD",0

# Source: patent US20260232767A1, “INTERLEUKIN-23 RECEPTOR ANTAGONIST PEPTIDES FOR USE IN THE TREATMENT OF PSORIASIS” (Janssen Pharmaceutica NV, priority 2023, published 2026)
